Values quoted from earlier work in patent publication US20090131263A1, “Normalization methods for G-protein coupled receptor membrane array” (priority 2007, published 2009).
pKd: −log10 of the molar value.

Experiments:
Go = Go (Homo sapiens, UniProt P09471); conditions: unactivated form of G protein Go, reconstituted vesicle systems
Gi2 = Gi2 (Homo sapiens, UniProt P04899); conditions: unactivated form of G protein Gi2, reconstituted vesicle systems
Gs = Gs (Homo sapiens, UniProt P63092); conditions: unactivated form of G protein Gs, reconstituted vesicle systems
Gs, sequence (P63092 whole entry): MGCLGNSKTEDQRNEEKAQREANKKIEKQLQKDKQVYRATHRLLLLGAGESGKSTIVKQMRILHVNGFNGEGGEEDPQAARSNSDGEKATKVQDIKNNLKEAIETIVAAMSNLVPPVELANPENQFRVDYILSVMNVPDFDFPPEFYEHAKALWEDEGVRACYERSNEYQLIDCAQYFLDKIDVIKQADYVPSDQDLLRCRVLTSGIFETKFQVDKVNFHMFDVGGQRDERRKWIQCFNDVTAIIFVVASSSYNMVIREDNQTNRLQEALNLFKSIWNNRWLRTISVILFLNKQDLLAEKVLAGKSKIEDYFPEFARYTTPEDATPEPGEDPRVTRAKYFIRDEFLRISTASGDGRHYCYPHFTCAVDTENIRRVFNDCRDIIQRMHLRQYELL

Gi1 = Gi1 (Homo sapiens, UniProt P63096); conditions: unactivated form of G protein Gi1, reconstituted vesicle systems
Gi1, sequence (P63096 whole entry): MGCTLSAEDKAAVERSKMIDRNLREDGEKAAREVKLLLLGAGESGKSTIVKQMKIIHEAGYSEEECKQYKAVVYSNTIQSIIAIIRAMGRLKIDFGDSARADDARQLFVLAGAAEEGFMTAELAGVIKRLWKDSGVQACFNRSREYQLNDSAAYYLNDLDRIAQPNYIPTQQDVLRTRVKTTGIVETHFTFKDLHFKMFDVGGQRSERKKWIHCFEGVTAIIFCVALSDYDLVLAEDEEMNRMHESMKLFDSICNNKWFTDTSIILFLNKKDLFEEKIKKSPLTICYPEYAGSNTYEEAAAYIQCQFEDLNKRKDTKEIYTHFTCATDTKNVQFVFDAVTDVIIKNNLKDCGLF

Gi2, sequence (P04899 whole entry): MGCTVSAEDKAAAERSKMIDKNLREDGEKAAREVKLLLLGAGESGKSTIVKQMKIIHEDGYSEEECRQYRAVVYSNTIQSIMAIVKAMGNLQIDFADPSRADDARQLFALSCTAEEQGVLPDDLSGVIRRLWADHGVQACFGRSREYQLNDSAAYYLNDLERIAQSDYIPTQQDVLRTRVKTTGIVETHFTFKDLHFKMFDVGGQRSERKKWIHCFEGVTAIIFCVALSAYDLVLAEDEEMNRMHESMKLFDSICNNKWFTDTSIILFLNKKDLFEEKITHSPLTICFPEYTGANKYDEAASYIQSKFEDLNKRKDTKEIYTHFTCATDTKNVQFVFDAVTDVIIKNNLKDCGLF
Go, sequence (P09471 whole entry): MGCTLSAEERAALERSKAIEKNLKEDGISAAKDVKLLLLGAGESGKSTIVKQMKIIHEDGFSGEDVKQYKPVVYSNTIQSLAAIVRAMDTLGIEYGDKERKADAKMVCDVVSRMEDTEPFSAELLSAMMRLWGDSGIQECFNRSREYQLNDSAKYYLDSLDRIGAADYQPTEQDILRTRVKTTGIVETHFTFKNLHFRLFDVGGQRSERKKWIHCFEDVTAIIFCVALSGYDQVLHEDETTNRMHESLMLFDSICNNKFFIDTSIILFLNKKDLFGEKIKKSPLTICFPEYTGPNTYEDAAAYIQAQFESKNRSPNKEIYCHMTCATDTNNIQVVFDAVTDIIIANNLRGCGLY

pKd (Go): 8.22
pKd (Gi2): 6.52
pKd (Gs): 7.15
pKd (Gi1): 6.82
Substance: BODIPY-FL-GTPγS
